Source: patent publication US8288421B2, “Phenylaminopyridines” (Basilea Pharmaceutica AG, priority 2004, dated 2012)
pEC50, pIC50: −log10 of the molar value.

Tests used:
Jily [1] = assay: MTS proliferation assay; type: cell-based; settings: 72 h read-out
Protocol: (§1) The assay is performed in 96 well tissue culture plates. The cells (range: 1.5*10^3-10^4) are seeded out in 80 μl complete medium 24 h prior to compound treatment. The test compounds are added in 20 μl complete medium containing max 5% DMSO. The final compound concentrations in the assays are in the range of 0.001 μM-10 μM. The assay plates are incubated for 72 h at culture conditions. The MTS reagent is prepared according to the manufacturer's protocol (Promega G1111). 20 μl MTS reagent are added to each well, the assay plates are quickly spun and incubated for another 3 h at culture conditions. Subsequently, the plates are shortly shaked and absorption measured with a microplate-reader at 492 nm. The scores A, B, C and D are explained at the end of the Table.

MRC5 [2] = assay: MTS proliferation assay; type: cell-based; settings: MRC5, 72 h read-out
Protocol: as §1

Jily [3] = assay: Hoechst 33342 nuclear staining; type: cell-based; settings: 48 h read-out
Protocol: (§2) This assay is performed in 96 well tissue culture plates. Appropriate number of cells (adherent cells: 3-5*10^3, suspension cells: 8-10*10^3) are being seeded out in 80 μl complete medium. Adherent cells are incubated for 24 h for proper spreading out before addition of test compounds while suspension cells are immediately treated with test compounds after seeding out. The test compounds are added in 20 μl complete medium containing max 5% DMSO. The final compound concentrations in the assays are in the range of 0.001 μM-10 μM. […] The assay plates are then further incubated for 30 minutes and subsequently analyzed with a standard inverted fluorescence microscope.
(§3) The readout allows the determination of the fraction of apoptotic nuclei as well as other morphological criteria specific for apoptosis as a function of the treatment. The scores A, B, C and D are explained at the end of the Table.

MRC5 [4] = assay: Hoechst 33342 nuclear staining; type: cell-based; settings: MRC5, 48 h read-out
Protocol: as §2, §3

PBL [5] = assay: Mitochondrial membrane potential (JC-1); type: cell-based, human; settings: 48 h read-out
Protocol: as §2, with “20 μal” for “20 μl”, “DMSO.” for “DMSO. The final compound concentrations in the assays are in the range of 0.001 μM-10 μM.”, “fluorescence microscope by using the FITC and TRITC filters.” for “fluorescence microscope.”
(§4) The scores A, B, C and D are explained at the end of the Table.

HeLa [6] = assay: Mitochondrial membrane potential (JC-1); type: cell-based, human; settings: 48 h read-out
Protocol: as §2, with “20 μal” for “20 μl”, “DMSO.” for “DMSO. The final compound concentrations in the assays are in the range of 0.001 μM-10 μM.”, “fluorescence microscope by using the FITC and TRITC filters.” for “fluorescence microscope.”
as §4

Jurkat [7] = assay: Mitochondrial membrane potential (JC-1); type: cell-based, human; settings: 48 h read-out
Protocol: as §2, with “20 μal” for “20 μl”, “DMSO.” for “DMSO. The final compound concentrations in the assays are in the range of 0.001 μM-10 μM.”, “fluorescence microscope by using the FITC and TRITC filters.” for “fluorescence microscope.”
as §4

MCF7 = assay: Mitochondrial membrane potential (JC-1); type: cell-based, human; settings: MCF7, 48 h read-out
Protocol: as §2, with “20 μal” for “20 μl”, “DMSO.” for “DMSO. The final compound concentrations in the assays are in the range of 0.001 μM-10 μM.”, “fluorescence microscope by using the FITC and TRITC filters.” for “fluorescence microscope.”
as §4

DOHH2 = assay: Mitochondrial membrane potential (JC-1); type: cell-based; settings: DOHH2, 48 h read-out
Protocol: as §2, with “20 μal” for “20 μl”, “DMSO.” for “DMSO. The final compound concentrations in the assays are in the range of 0.001 μM-10 μM.”, “fluorescence microscope by using the FITC and TRITC filters.” for “fluorescence microscope.”
as §4

PBL [8] = assay: Hoechst 33342 nuclear staining; type: cell-based, human; settings: 48 h read-out
Protocol: as §2, §3

HeLa [9] = assay: Hoechst 33342 nuclear staining; type: cell-based, human; settings: 48 h read-out
Protocol: as §2, §3

Jurkat [10] = assay: Hoechst 33342 nuclear staining; type: cell-based, human; settings: 48 h read-out
Protocol: as §2, §3

HeLa [11] = assay: MTS proliferation assay; type: cell-based, human; settings: 72 h read-out
Protocol: as §1

Jurkat [12] = assay: MTS proliferation assay; type: cell-based, human; settings: 72 h read-out
Protocol: as §1

HT1080 = assay: MTS proliferation assay; type: cell-based, human; settings: HT1080, 72 h read-out
Protocol: as §1

| Structure (SMILES) | pIC50 (Jily [1]) | pIC50 (MRC5 [2]) | pEC50 (Jily [3]) | pEC50 (MRC5 [4]) | pEC50 (PBL [5]) | pEC50 (HeLa [6]) | pEC50 (Jurkat [7]) | pEC50 (MCF7) | pEC50 (DOHH2) | pEC50 (PBL [8]) | pEC50 (HeLa [9]) | pEC50 (Jurkat [10]) | pIC50 (HeLa [11]) | pIC50 (Jurkat [12]) | pIC50 (HT1080) |
| --- | --- | --- | --- | --- | --- | --- | --- | --- | --- | --- | --- | --- | --- | --- | --- |
| COc1ccc(Nc2cncc(-c3cccc(NC(=O)c4cccnc4)c3)c2)cc1 [Example 13] | 7.00 to 8.00 | 6.00 to 7.00 | 6.00 to 7.00 | < 6.00 | < 6.00 | 6.00 to 7.00 | 7.00 to 8.00 | < 6.00 | 6.00 to 7.00 | < 6.00 | 6.00 to 7.00 | 6.00 to 7.00 | 6.00 to 7.00 | 7.00 to 8.00 | 6.00 to 7.00 |
| COc1ccc(Nc2cncc(-c3cccc(NC(=O)c4ccco4)c3)c2)cc1 [Example 14] | 7.00 to 8.00 | 6.00 to 7.00 | 7.00 to 8.00 | 6.00 to 7.00 | < 6.00 | 6.00 to 7.00 | 7.00 to 8.00 | < 6.00 | 7.00 to 8.00 | < 6.00 | 6.00 to 7.00 | 7.00 to 8.00 | 6.00 to 7.00 | 7.00 to 8.00 | 6.00 to 7.00 |
| COc1ccc(Nc2cncc(-c3cccc(NC(=O)Cc4ccccc4)c3)c2)cc1 [Example 15] | 6.00 to 7.00 | 6.00 to 7.00 | 6.00 to 7.00 | < 6.00 | < 6.00 | 6.00 to 7.00 | 7.00 to 8.00 | < 6.00 | 6.00 to 7.00 | < 6.00 | 6.00 to 7.00 | 6.00 to 7.00 | 6.00 to 7.00 | 6.00 to 7.00 | 6.00 to 7.00 |
| COc1ccc(Nc2cncc(-c3cccc(NC(=O)c4ccccn4)c3)c2)cc1 [Example 17] | 7.00 to 8.00 | 7.00 to 8.00 | 7.00 to 8.00 | < 6.00 | < 6.00 | 7.00 to 8.00 | 7.00 to 8.00 | < 6.00 | 7.00 to 8.00 | < 6.00 | 7.00 to 8.00 | 6.00 to 7.00 | 7.00 to 8.00 | > 8.00 | 7.00 to 8.00 |
| COCC(=O)Nc1cccc(-c2cncc(Nc3ccc(OC)cc3)c2)c1 [Example 41] |  |  | 6.00 to 7.00 | < 6.00 | 6.00 to 7.00 | 6.00 to 7.00 | 6.00 to 7.00 | 6.00 to 7.00 | 6.00 to 7.00 | 6.00 to 7.00 | 6.00 to 7.00 | 6.00 to 7.00 |  |  |  |
